Legend:
MCF7 [1] = experiment: Cytostatic activity against human MCF7 cells; assay type: functional, cell-based
Estrogen receptor [2] = target: T1, Estrogen receptor (Homo sapiens, UniProt P03372); experiment: Inhibition of estrogen receptor (unknown origin)
T1 sequence (P03372 whole entry): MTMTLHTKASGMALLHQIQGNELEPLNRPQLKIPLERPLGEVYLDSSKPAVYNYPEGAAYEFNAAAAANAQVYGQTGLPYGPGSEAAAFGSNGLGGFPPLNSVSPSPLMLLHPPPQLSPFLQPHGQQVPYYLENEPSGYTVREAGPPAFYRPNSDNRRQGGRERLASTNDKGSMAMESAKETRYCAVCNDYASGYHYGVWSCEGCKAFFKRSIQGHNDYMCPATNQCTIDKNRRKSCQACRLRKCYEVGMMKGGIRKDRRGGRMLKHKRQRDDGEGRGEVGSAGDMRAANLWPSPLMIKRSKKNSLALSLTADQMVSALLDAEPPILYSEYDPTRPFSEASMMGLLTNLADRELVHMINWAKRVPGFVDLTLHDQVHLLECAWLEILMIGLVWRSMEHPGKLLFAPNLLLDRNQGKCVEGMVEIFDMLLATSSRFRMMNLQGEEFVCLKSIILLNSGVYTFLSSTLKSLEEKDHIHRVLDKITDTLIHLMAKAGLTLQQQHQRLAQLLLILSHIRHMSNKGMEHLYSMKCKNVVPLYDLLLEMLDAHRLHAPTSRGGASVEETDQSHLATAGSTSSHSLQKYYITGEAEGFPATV

MCF7 [3] = experiment: Cytotoxicity against human MCF7 cells after 72 hrs by LDH assay; assay type: functional, cell-based; details: MCF7, 72 h
[4] = target: T2, Prostaglandin G/H synthase 2 (Ovis aries, UniProt P79208); experiment: Inhibition of ovine COX2 using arachidonic acid as substrate assessed as reduction in PGF2alpha production preincubated for 5 mins followed by substrate addition measured after 2 mins by enzyme immunoassay
T2 sequence (P79208 whole entry): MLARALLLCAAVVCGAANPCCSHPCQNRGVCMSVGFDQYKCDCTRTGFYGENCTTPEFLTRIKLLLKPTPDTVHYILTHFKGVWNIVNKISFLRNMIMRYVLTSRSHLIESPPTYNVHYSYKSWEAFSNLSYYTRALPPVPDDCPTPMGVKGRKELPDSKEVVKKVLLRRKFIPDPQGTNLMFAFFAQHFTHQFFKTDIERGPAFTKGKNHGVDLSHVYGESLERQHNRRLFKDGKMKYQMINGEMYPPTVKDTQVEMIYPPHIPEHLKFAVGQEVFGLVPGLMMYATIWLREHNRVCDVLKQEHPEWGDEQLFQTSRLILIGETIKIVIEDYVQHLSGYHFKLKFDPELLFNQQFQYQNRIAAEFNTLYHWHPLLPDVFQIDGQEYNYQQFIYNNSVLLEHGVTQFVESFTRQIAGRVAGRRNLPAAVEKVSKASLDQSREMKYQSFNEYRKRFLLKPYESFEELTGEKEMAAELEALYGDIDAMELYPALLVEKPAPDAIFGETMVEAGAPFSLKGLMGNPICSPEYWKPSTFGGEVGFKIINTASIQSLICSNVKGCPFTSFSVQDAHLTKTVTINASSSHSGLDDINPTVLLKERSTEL

Ovis aries = species: Ovis aries; experiment: Selectivity index, ratio of IC50 for ovine COX1 to IC50 for ovine COX2
Homo sapiens [5] = species: Homo sapiens; experiment: Selectivity index, ratio of IC50 for of ERalpha receptor (unknown origin) to IC50 for ERbeta receptor (unknown origin)
Homo sapiens [6] = species: Homo sapiens; experiment: Ratio of selectivity index for test compound to selectivity index for compound for ERalpha (unknown origin) over ERbeta (unknown origin)
Estrogen receptor [7] = target: T1, Estrogen receptor; experiment: Binding affinity to estrogen receptor (unknown origin)
[8] = target: T3, Estrogen receptor (Homo sapiens) (UniProt P03372); experiment: Potency index, ratio of tamoxifen IC50 to compound IC50 for binding affinity to ERalpha receptor (unknown origin)
T3 sequence (whole entry): T1 sequence (P03372 whole entry)

MCF7 [9] = experiment: Antiproliferative activity against human MCF7 cells; assay type: functional, cell-based

CC/C(=C(\c1ccccc1)c1ccc(OCCN(C)C)cc1)c1ccccc1 [TAMOXIFEN] was tested, and the IC50 (MCF7 [1]) was 2700 nM.
CCN(CC)CCOc1ccc(C(=C(C#N)c2ccccc2)c2ccc(OCCN(CC)CC)cc2)cc1 was tested, and the IC50 (Estrogen receptor [2]) was > 10000 nM.
CC/C(Cc1ccccc1)=C(\c1ccccc1)c1ccc(OCCN2CCCC2)cc1 showed an IC50 (MCF7 [3]) of 12500 nM.
For CCCCC(=C(c1ccccc1)c1ccccc1)c1ccc(S(C)(=O)=O)cc1, the IC50 [4] was 14 nM and the Ratio IC50 (Ovis aries) was > 7140.
For CCc1c(-c2ccccc2)c2cnn(OCCCN(C)C)c2c2ccccc12, the IC50 (MCF7 [1]) was 1000 nM.
CCC(Cc1ccccc1)=C(c1ccc(O)cc1)c1ccc(OCCN2CCCC2)cc1 was tested, and the Ratio IC50 (Homo sapiens [5]) was 12, the Ratio IC50 (Homo sapiens [6]) was 900 and the IC50 (Estrogen receptor [7]) was 20 nM. The Ratio IC50 [8] was 80 and the IC50 (MCF7 [9]) was < 250 nM.
For CN1CCN(CCOc2ccc(C(=C(C#N)c3ccccc3)c3ccc(OCCN4CCN(C)CC4)cc3)cc2)CC1, the IC50 (Estrogen receptor [2]) was > 10000 nM.
Compound CC/C(=C(\c1ccccc1)c1cnn(OCCCN(C)C)c1)c1ccccc1 has an IC50 (MCF7 [1]) of 3000 nM.

Reference: ChEMBL document CHEMBL4251582 (Eur J Med Chem, 2018)
